In brackets after ≈: the same amount, converted by molar mass.
Key:
[1] = tested on: Mycobacterium tuberculosis; assay: Antitubercular activity against dormant Mycobacterium tuberculosis H37Ra assessed as growth inhibition at 10 ug/mL by XTT reduction menadione assay; format: functional; conditions: read-out: GI
[2] = Cytotoxicity against human A549 cells at 10 ug/mL by MTT assay; format: cell-based; conditions: read-out: INH
[3] = tested on: Mycobacterium bovis BCG str. ATCC 35743; assay: Antitubercular activity against dormant Mycobacterium bovis BCG ATCC 35743 assessed as growth inhibition at 3 ug/mL by NR assay; format: functional
Pseudomonas = assay: Antibacterial activity against Pseudomonas after 18 hrs by broth dilution method; format: functional, organism-based
[4] = Cytotoxicity against human MCF7 cells at 3 ug/mL by MTT assay; format: cell-based; conditions: read-out: INH
[5] = tested on: Mycobacterium tuberculosis; assay: Antitubercular activity against dormant Mycobacterium tuberculosis H37Ra by XTT reduction menadione assay; format: functional, organism-based
[6] = tested on: Mycobacterium bovis BCG str. ATCC 35743; assay: Antitubercular activity against dormant Mycobacterium bovis BCG ATCC 35743 assessed as growth inhibition at 30 ug/mL by NR assay; format: functional
[7] = Cytotoxicity against human HCT116 cells at 3 ug/mL by MTT assay; format: cell-based, HCT-116; conditions: read-out: INH
[8] = (§1) Cytotoxicity against human MCF7 cells after 48 and 72 hrs by MTT assay; format: cell-based; conditions: MCF7 cells
MCF7 = assay: as §1; format: cell-based; conditions: mcf7, 72 h
[9] = Cytotoxicity against human A549 cells at 3 ug/mL by MTT assay; format: cell-based; conditions: read-out: INH
Staphylococcus aureus = assay: Antibacterial activity against Staphylococcus aureus after 18 hrs by broth dilution method; format: functional, organism-based
[10] = tested on: Mycobacterium bovis BCG str. ATCC 35743; assay: Antitubercular activity against dormant Mycobacterium bovis BCG ATCC 35743 assessed as growth inhibition at 10 ug/mL by NR assay; format: functional
[11] = Cytotoxicity against human MCF7 cells at 30 ug/mL by MTT assay; format: cell-based; conditions: read-out: INH
[12] = Cytotoxicity against human HCT116 cells at 10 ug/mL by MTT assay; format: cell-based, HCT-116; conditions: read-out: INH
Bacillus subtilis = assay: Antibacterial activity against Bacillus subtilis after 18 hrs by broth dilution method; format: functional, organism-based
[13] = Cytotoxicity against human MCF7 cells at 10 ug/mL by MTT assay; format: cell-based; conditions: read-out: INH
[14] = Cytotoxicity against human A549 cells at 30 ug/mL by MTT assay; format: cell-based; conditions: read-out: INH
[15] = tested on: Mycobacterium tuberculosis; assay: Antitubercular activity against dormant Mycobacterium tuberculosis H37Ra assessed as growth inhibition at 3 ug/mL by XTT reduction menadione assay; format: functional; conditions: read-out: GI
[16] = Cytotoxicity against human HCT116 cells after 48 and 72 hrs by MTT assay; format: cell-based, HCT-116; conditions: for GI50 at 72 h: HCT116 cells; for GI90: hct-116, 72 h
Escherichia coli = assay: Antibacterial activity against Escherichia coli after 18 hrs by broth dilution method; format: functional, organism-based
[17] = Cytotoxicity against human HCT116 cells at 30 ug/mL by MTT assay; format: cell-based, HCT-116; conditions: read-out: INH
[18] = tested on: Mycobacterium tuberculosis; assay: Antitubercular activity against dormant Mycobacterium tuberculosis H37Ra assessed as growth inhibition at 30 ug/mL by XTT reduction menadione assay; format: functional; conditions: read-out: GI
[19] = (§2) Antitubercular activity against dormant Mycobacterium bovis BCG ATCC 35743 by NR assay; format: functional, Mycobacterium bovis BCG str. ATCC 35743
[20] = tested on: Mycobacterium bovis BCG str. ATCC 35743; assay: as §2; format: functional
[21] = (§3) Cytotoxicity against human A549 cells after 48 and 72 hrs by MTT assay; format: cell-based; conditions: A549 cells
A549 = assay: as §3; format: cell-based; conditions: a549, 72 h

| Structure (SMILES) | inhibition of growth at 10 µg/mL [1] | cytotoxicity at 10 ug/mL [2] | growth inhibition (GI) [3] | cytotoxicity at 3 ug/mL [4] | IC50 [5] | IC90 [5] | growth inhibition (GI) [6] | cytotoxicity at 3 ug/mL [7] | GI50 at 72 h [8] | GI90 (MCF7) | cytotoxicity at 3 ug/mL [9] | growth inhibition (GI) [10] | cytotoxicity at 30 ug/mL [11] | cytotoxicity at 10 ug/mL [12] | cytotoxicity at 10 ug/mL [13] | cytotoxicity at 30 ug/mL [14] | inhibition of growth at 3 µg/mL [15] | GI50 at 72 h [16] | GI90 [16] | cytotoxicity at 30 ug/mL [17] | further results |
| --- | --- | --- | --- | --- | --- | --- | --- | --- | --- | --- | --- | --- | --- | --- | --- | --- | --- | --- | --- | --- | --- |
| O=C1CSC(c2ccccc2)N1c1ccc(Cl)cc1 (centres undefined) | 24.2% | 0% | 1.3% | 11.2% | 17.3 µg/mL (≈ 59.7 µM) | 28.7 µg/mL (≈ 99 µM) | 11.6% | 19% | > 100 µg/mL | > 100 µg/mL | -12.3% | -11.3% | 38% | 30% | 19.5% | 13.4% | -17% | > 100 µg/mL | > 100 µg/mL | 32.8% | IC50 (Pseudomonas): > 30 µg/mL; MIC (Pseudomonas): > 30 µg/mL; IC50 (Staphylococcus aureus): > 30 µg/mL; MIC (Staphylococcus aureus): > 30 µg/mL; IC50 (Bacillus subtilis): > 30 µg/mL; MIC (Bacillus subtilis): > 30 µg/mL; IC50 (Escherichia coli): > 30 µg/mL; MIC (Escherichia coli): > 30 µg/mL; inhibition of growth at 30 µg/mL [18]: 94.3%; IC50 [19]: > 30 µg/mL; IC90 [20]: > 30 µg/mL; GI50 at 72 h [21]: > 100 µg/mL; GI90 (A549): > 100 µg/mL |
| COc1ccc(C2SCC(=O)N2c2ccccc2)cc1 (centres undefined) | 74.1% | 0% | 23.2% | -2.6% | 4.2 µg/mL (≈ 14.7 µM) | > 30 µg/mL | 85.9% | -5.4% | > 100 µg/mL | > 100 µg/mL | 0% | 56.1% | 18.3% | 7.2% | 12.6% | -4.3% | 45.1% | > 100 µg/mL | > 100 µg/mL | 8.4% | IC50 (Pseudomonas): > 30 µg/mL; MIC (Pseudomonas): > 30 µg/mL; IC50 (Staphylococcus aureus): > 30 µg/mL; MIC (Staphylococcus aureus): > 30 µg/mL; IC50 (Bacillus subtilis): > 30 µg/mL; MIC (Bacillus subtilis): > 30 µg/mL; IC50 (Escherichia coli): > 30 µg/mL; MIC (Escherichia coli): > 30 µg/mL; inhibition of growth at 30 µg/mL [18]: 83.3%; IC50 [19]: 8.7 µg/mL (≈ 30.5 µM); IC90 [20]: > 30 µg/mL; GI50 at 72 h [21]: > 100 µg/mL; GI90 (A549): > 100 µg/mL |
| O=C1CSC(c2ccc(F)cc2)N1c1ccccc1 (centres undefined) | 73.2% | 0% | -10.7% | -4.1% | 6.8 µg/mL (≈ 24.9 µM) | 27.5 µg/mL (≈ 101 µM) | 80.2% | -0.5% | > 100 µg/mL | > 100 µg/mL | 0% | 14.4% | 33% | 14.6% | 10.8% | 0% | 25.6% | > 100 µg/mL | > 100 µg/mL | 23.5% | IC50 (Pseudomonas): > 30 µg/mL; MIC (Pseudomonas): > 30 µg/mL; IC50 (Staphylococcus aureus): > 30 µg/mL; MIC (Staphylococcus aureus): > 30 µg/mL; IC50 (Bacillus subtilis): > 30 µg/mL; MIC (Bacillus subtilis): > 30 µg/mL; IC50 (Escherichia coli): > 30 µg/mL; MIC (Escherichia coli): > 30 µg/mL; inhibition of growth at 30 µg/mL [18]: 92.2%; IC50 [19]: 20.9 µg/mL (≈ 76.5 µM); IC90 [20]: > 30 µg/mL; GI50 at 72 h [21]: > 100 µg/mL; GI90 (A549): > 100 µg/mL |
| CC(=O)O[C@H]1C(=O)[C@@]2(C)[C@H]([C@H](OC(=O)c3ccccc3)[C@]3(O)C[C@H](OC(=O)[C@H](O)[C@@H](NC(=O)c4ccccc4)c4ccccc4)C(C)=C1C3(C)C)[C@]1(OC(C)=O)CO[C@@H]1C[C@@H]2O [PACLITAXEL] | – | – | – | – | – | – | – | – | 0.075 µg/mL (≈ 0.0878 µM) | 0.0039 µg/mL (≈ 0.00457 µM) | – | – | – | – | – | – | – | 5.21 µg/mL (≈ 6.1 µM) | 0.026 µg/mL (≈ 0.0304 µM) | – | GI50 at 72 h [21]: 0.039 µg/mL (≈ 0.0457 µM); GI90 (A549): < 0.004 µg/mL |
| Cc1ccc(N2C(=O)CSC2c2ccccc2)cc1 (centres undefined) | -24.3% | 0% | 61.6% | -40.6% | > 30 µg/mL | > 30 µg/mL | 39.7% | 16.1% | – | – | 0% | 4.5% | 29.2% | 20.5% | 8.4% | -15.9% | -21.6% | – | – | 21.6% | inhibition of growth at 30 µg/mL [18]: -0.7%; IC50 [19]: > 30 µg/mL; IC90 [20]: > 30 µg/mL |

— ChEMBL document CHEMBL3779788, “Facile synthesis of 1,3-thiazolidin-4-ones as antitubercular agents” (Bioorg Med Chem Lett, 2016)
